Data set [1] in a line: Solubility. The format is physicochemical.
Data set [2] concerns Ovalbumin induced cell migration. In words: Allergic mouse model (ovalbumin induced cell migration). The class given is in vivo. Particulars: % inhibition (full), p.o. mice 24 h, 10 mg/kg CMC. How it is done:
Male BalbC mice of 20-25 g body weight are used for the experiments. The animals are first allergized with ovalbumin, then three weeks after the first ovalbumin injection they are involved into the experiment. On the day of the experiment the mice are treated (per os) with the experimental material (or with the vehicle containing no active ingredient), then after a suitable waiting period they are narcotized. After surgical opening of the trachea, 10 microliter of 1% ovalbumin solution is injected into the trachea.
The control group receives vehicle (physiological salt solution) into the trachea. After surgical closing of the trachea and treatment of the wound, the animals are separated and kept under their usual life conditions for 24 h.
After 24 hours the animals are over narcotized, the trachea is opened again and the lung is washed with buffer solution. The buffer solution is centrifuged, the cell sediment is resuspended again, and then the cells are counted. The total cell number is determined and the different leukocytes are sorted on the bases of the morphology. To determine the effectivity of the experimental material, the inhibition % is calculated in comparison to the control group. To determine the significance of the effect, statistical evaluation is carried out.

Data set [3] concerns the target T1, human adenosine A3 receptor (Homo sapiens, UniProt P0DMS8).
T1 construct: host or cells: CHO cells (CHO-hA3), membrane preparation
T1 sequence (P0DMS8 1-318): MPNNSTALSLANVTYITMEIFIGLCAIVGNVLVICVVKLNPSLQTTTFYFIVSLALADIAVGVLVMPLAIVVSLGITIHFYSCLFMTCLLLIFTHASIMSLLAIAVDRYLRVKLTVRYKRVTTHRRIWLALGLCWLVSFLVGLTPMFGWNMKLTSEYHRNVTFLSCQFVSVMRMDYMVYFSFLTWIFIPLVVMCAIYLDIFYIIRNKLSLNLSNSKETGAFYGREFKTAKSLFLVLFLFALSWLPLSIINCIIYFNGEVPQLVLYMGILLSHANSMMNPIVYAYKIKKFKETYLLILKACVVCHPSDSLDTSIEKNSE
Description: Human adenosine A3 receptor binding ([125I]AB-MECA, CHO-hA3 membranes). Particulars: CHO-hA3 membrane, 0.5 nM [125I]AB-MECA. On the procedure: Human Adenosine A3 Receptor Binding
Preparing membrane suspension: ovarium cells of cloned […] hamster expressing human A3 receptor (further: CHO-hA3) are appropriately cultured. Achieving confluent cell layer, the cultivating liquid is removed from the cells by washing them with 37° C. PBS, then the cell are suspended in ice cold PBS, washed 3 times with PBS, centrifuged (1000×g 10 minutes) (Sigma 3K30) and homogenated using teflon homogenizer (B. Braun Potter S) at 1500/min rotation speed, for 15 sec. in the following buffer: 50 mM Tris, 10 mM MgCl2, 1 mM EDTA, pH 8.0. The homogenate is centrifuged (43.000 g, 10 min). The precipitate is suspended in the above buffer, protein concentration 0.1 mg/ml (Bradford method). Aliquots of the membrane preparatum are store at −80° C. hA3-CHO membrane preparation from Perkin Elmer was used alternatively.
Binding protocol: incubate CHO-hA3 membrane preparation (2 μg protein content) in the presence of the test material and 0.5 nM [^125I]AB-MECA (4-amino-3-iodo-benzyl-5′-N-methylcarboxamide-adenosine) (100.000 cpm) in incubation buffer (50 mM Tris, 10 mM MgCl2, 1 mM EDTA, 3 U/mL adenosine deaminase, pH 8.0). Define the non-specific radioligand binding in the presence of 100 μM R-PIA (N^6[L-2-phenylisopropyl]adenosine). Total volume of the reaction is 50 μL for 60 min at room temperature. […] Detect the radioactivity in gamma-counter (1470 Wizard, Wallac). […]
Based on the radioisotope saturation curves using Scatchard analysis (G. Scatchard, Ann. N.Y. Acad. Sci. 51:660, 1949) the dissociation constant (Kd) of the radioligand [^125I]AB-MECA on the CHO-hA3 membrane preparate is determined. From the Kd values, applying the Cheng-Prusoff equation (Y. J. Cheng and W. H. Prusoff, Biochem. Pharmacol. 22:3099, 1973) the affinity constants (Ki) of the test compounds are calculated from their IC50 values.

≈ marks a conversion by molar mass, not a printed value.

Broadly, the solubility is how much of the substance goes into solution per volume. Low readings indicate little dissolved substance, high ones much dissolved substance. By IC50 is commonly meant the midpoint of a concentration-inhibition curve.

For `COc1cccc(-c2nc3c(C#N)c(NCc4ccccc4)c4cc(N5CCOCC5)ccc4n3n2)c1` [Example 1, 2-(3-methoxyphenyl)-7-(morpholin-4-yl)-9-benzylamino-10-cyano-s-triazolo[1,5-a]quinoline], the solubility in data set [1] (pH 1, simulated gastric fluid) is 500 µg/mL (≈ 1020 µM); in data set [1] (pH 6.5, aqueous buffer), 0.2 µg/mL (≈ 0.408 µM); in data set [1] (pH 7.5, aqueous buffer), 2 µg/mL (≈ 4.08 µM). For the same compound, the “Inhibition of cell migration” value in data set [2] is reported as 81%. For the same compound, in data set [3], the IC50 was 38 nM.
In the same order, the values of `CN1CCN(c2ccc3c(c2)c(NCc2ccccc2)c(C#N)c2nc(-c4ccccc4)nn23)CC1` [Example 17] are 3000 µg/mL (≈ 6330 µM), 0.5 µg/mL (≈ 1.06 µM), 5 µg/mL (≈ 10.6 µM), 88% and 7.7 nM.
The corresponding values for `CN1CCN(c2ccc3c(c2)c(NCc2ccccc2)c(C#N)c2nc(-c4ccc(F)cc4)nn23)CC1` [Example 18] are 2500 µg/mL (≈ 5090 µM), 0.5 µg/mL (≈ 1.02 µM), 13 µg/mL (≈ 26.4 µM), 57% and 11 nM.

These data come from patent US8338411B2, “Compounds” (Sanofi, priority 2007, dated 2012).
